In the supplement of paper PMC4862054:
Values joined by “and” are separate entries in the source; they are usually repeats but may differ in a detail not shown here. Equal entries are not always repeated.

How the values were obtained:
Conditions in all cases: incubation time: 72 h
BT-474 [1] = test: normalised response (% of control), CellTiter-Glo; higher = more viable cells (100 = DMSO, 0 = benzethonium chloride kill control)
In short: (§1)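 Values are normalised signals, each belonging to one concentration of the series. Breast cancer cells (20 µl suspension) were seeded into 384-well plates with compound at 5 concentrations in 10-fold steps over a compound-specific 10,000-fold range and incubated 72 h. Readouts were CellTox Green fluorescence (485/520 nm), then CellTiter-Glo luminescence after 10 min at room temperature, with each plate set to 0.1 % DMSO as 100 and a positive kill control as 0.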

BT-549 [2] = test: as above
In short: as §1

CAL-120 [3] = test: as above
In short: as §1

CAL-148 [4] = test: as above
In short: as §1

CAL-51 [5] = test: as above
In short: as §1

CAL-85-1 [6] = test: as above
In short: as §1

DU-4475 [7] = test: as above
In short: as §1

HCC1143 [8] = test: as above
In short: as §1

HCC1599 [9] = test: as above
In short: as §1

HCC1937 [10] = test: as above
In short: as §1

HDQ-P1 [11] = test: as above
In short: as §1

Hs578T [12] = test: as above
In short: as §1

MCF-10A = test: as above
In short: as §1

MDA-MB-231 [13] = test: as above
In short: as §1

MDA-MB-436 [14] = test: as above
In short: as §1

MDA-MB-453 [15] = test: as above
In short: as §1

MDA-MB-468 [16] = test: as above
In short: as §1

MFM-223 [17] = test: as above
In short: as §1

SK-BR-3 [18] = test: as above
In short: as §1

BT-474 [19] = test: normalised viability (% of control), CellTiter-Blue; higher = more viable cells (100 = DMSO, 0 = benzethonium chloride kill control)
In short: (§2)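 The reported quantity is normalised viability at a single listed concentration of the series. Compound in 5 µl medium was pre-dispensed into 384-well plates and 20 µl of breast cancer cell suspension was added for 72 h. A 2 h, 37 °C CellTiter-Blue step (2.5 µl) preceded fluorescence reading at 560/590 nm, and plates were normalised to vehicle (100) and a positive kill control (0).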

BT-549 [20] = test: as above
In short: as §2

CAL-120 [21] = test: as above
In short: as §2

CAL-148 [22] = test: as above
In short: as §2

CAL-51 [23] = test: as above
In short: as §2

CAL-85-1 [24] = test: as above
In short: as §2

DU-4475 [25] = test: as above
In short: as §2

HCC1143 [26] = test: as above
In short: as §2

HCC1599 [27] = test: as above
In short: as §2

HCC1937 [28] = test: as above
In short: as §2

HDQ-P1 [29] = test: as above
In short: as §2

Hs578T [30] = test: as above
In short: as §2

MDA-MB-231 [31] = test: as above
In short: as §2

MDA-MB-436 [32] = test: as above
In short: as §2

MDA-MB-453 [33] = test: as above
In short: as §2

MDA-MB-468 [34] = test: as above
In short: as §2

MFM-223 [35] = test: as above
In short: as §2

SK-BR-3 [36] = test: as above
In short: as §2

Structure (SMILES)	normalised response (BT-474 [1]) [%]	normalised response (BT-549 [2]) [%]	normalised response (CAL-120 [3]) [%]	normalised response (CAL-148 [4]) [%]	normalised response (CAL-51 [5]) [%]	normalised response (CAL-85-1 [6]) [%]	normalised response (DU-4475 [7]) [%]	normalised response (HCC1143 [8]) [%]	normalised response (HCC1599 [9]) [%]	normalised response (HCC1937 [10]) [%]	normalised response (HDQ-P1 [11]) [%]	normalised response (Hs578T [12]) [%]	normalised response (MCF-10A) [%]	normalised response (MDA-MB-231 [13]) [%]	normalised response (MDA-MB-436 [14]) [%]	normalised response (MDA-MB-453 [15]) [%]	normalised response (MDA-MB-468 [16]) [%]	normalised response (MFM-223 [17]) [%]	normalised response (SK-BR-3 [18]) [%]	normalised viability (BT-474 [19])	normalised viability (BT-549 [20])	normalised viability (CAL-120 [21])	normalised viability (CAL-148 [22])	normalised viability (CAL-51 [23])	normalised viability (CAL-85-1 [24])	normalised viability (DU-4475 [25])	normalised viability (HCC1143 [26])	normalised viability (HCC1599 [27])	normalised viability (HCC1937 [28])	normalised viability (HDQ-P1 [29])	normalised viability (Hs578T [30])	normalised viability (MDA-MB-231 [31])	normalised viability (MDA-MB-436 [32])	normalised viability (MDA-MB-453 [33])	normalised viability (MDA-MB-468 [34])	normalised viability (MFM-223 [35])	normalised viability (SK-BR-3 [36])
CCNC(=O)c1noc(-c2cc(C(C)C)c(O)cc2O)c1-c1ccc(CN2CCOCC2)cc1 [NVP-AUY922] (0.1 nM)	113	107	107	110	94.8	107	102	101	123	104	102	94.9	105	106	102	106	105	106	108	109%	97.2%	111%	104%	99.5%	104%	109%	121%	103%	91.2%	81.1%	150%	121%	99.6%	114%	106%	99.4%	94.8%
CC1(C)CCC(c2ccc(Cl)cc2)=C(CN2CCN(c3ccc(C(=O)NS(=O)(=O)c4ccc(N[C@H](CCN5CCOCC5)CSc5ccccc5)c(S(=O)(=O)C(F)(F)F)c4)cc3)CC2)C1 [Navitoclax] (1 nM)	95.7	102	94	90.3	74.1	91.8	101	88.7	98.6	98.2	106	97.6	93.5	99.2	95.6	94.4	95.1	93.8	92.4	88.9%	103%	73.8%	99.2%	109%	79.1%	88.6%	81.6%	90.9%	88.2%	67%	99.2%	84.6%	59.8%	83.4%	90.2%	69.9%	78.4%
Cc1cn(-c2cc(NC(=O)c3ccc(C)c(Nc4nccc(-c5cccnc5)n4)c3)cc(C(F)(F)F)c2)cn1 [Nilotinib] (1 nM)	93.5	102	98.5	93.1	98.1	105	105	95.8	112	96.1	96.9	100	95.4	98.8	95.7	101	106	96	103	87.9% and 96%	107% and 98.7%	82.1% and 80.6%	91.4% and 96.9%	106% and 112%	82.6% and 95.6%	110% and 104%	87.8% and 80.8%	103% and 87.9%	95.5% and 94%	83.1% and 101%	97.8% and 107%	83.9% and 95.6%	111% and 89.4%	88.4% and 92.2%	96% and 99.2%	94% and 90.9%	93.3% and 92.6%
